The source of these data is patent US10426817B2, “Treatment of age-related macular degeneration and other eye diseases with apolipoprotein mimetics” (MacRegen, Inc., priority 2017, dated 2019).

For data set [1] the following is noted: in vivo; cited from earlier work.
Data set [2] relates to neutral lipids in and on the Bruch's membrane. Briefly: Oil red O (ORO) staining of neutral lipids in Bruch's membrane, macaque study. Format: in vivo, Macaca fascicularis. The conditions noted are these: eyes injected with L-4F vs eyes injected with placebo (scrambled L-4F); 6 monthly intravitreal injections, total 625 μg; after 6 months. The procedure:
(§1) The macaque study was conducted according to accepted guidelines.
For staining with oil red O (ORO), specimens were treated with a 0.3% oil red O (Sigma-Aldrich Biochemie GmbH, Hamburg, Germany) solution (in 99% isopropanol) for 30 min at room temperature (RT), followed by immersion in a 60% isopropanol solution for 12 min. After the specimens were washed with deionized water for 3 min, counter-staining was conducted with hematoxylin (Carl Roth GmbH, Karlsruhe, Germany). The specimens were then mounted with mounting solution (Aquatex from Merck Millipore, Darmstadt, Germany), covered with a glass cover slip (Menzel-Graeser GmbH), and examined using a fully automated inverted light microscope for life science (DMI 6000 from Leica Microsystems Wetzlar, Germany). Image analysis was performed by grading the intensity of ORO staining (red color) of the Bruch's membrane (BrM) with scores ranging from 0 to 4, according to a qualitative evaluation assessed in four different regions in two separate slices from each eye (a total of 8 different regions from each eye). Qualitative ORO staining scores at the BrM and the choroid: 0=no staining; 1=+; 2=++; 3=+++; 4=++++.

Data set [3] deals with esterified cholesterol in the Bruch's membrane. Briefly: Filipin staining of esterified cholesterol in Bruch's membrane, macaque study. Format: in vivo, Macaca fascicularis. The settings on record: eyes injected with L-4F vs placebo-injected eyes; 6 monthly intravitreal injections. As for the experimental part:
as §1
For staining with filipin, specimens were washed once with deionized water for 5 min and then treated with 70% ethanol for 45 min. After being washed with deionized water for 5 min, the specimens were treated with cholesterol esterase (8.12 units/mL) diluted in 0.1 M potassium phosphate buffer (PPB, pH 7.4) for 3.5 hr at 37° C. The specimens were then washed sequentially with PPB and with phosphate buffered saline (PBS) twice for 3 min, followed by a wash with cold (4° C.) PBS overnight. Filipin staining was then performed with 250 μg/mL filipin (Sigma-Aldrich Biochemie GmbH, Hamburg, Germany), diluted in N,N-dimethylformamide (Merck Millipore, Darmstadt, Germany), for 60 min at RT with light shielding. The specimens were then washed sequentially with PBS and deionized water, mounted with a mounting solution (Mowiol®, Carl Roth GmbH, Karlsruhe, Germany), covered with a glass cover slip, and examined using an inverted fluorescence microscope (DMI 6000 from Leica Microsystems, Wetzlar, Germany). Filipin fluorescence was observed using a UV filter set (λex/λem=350 nm/455 nm). […] Semiquantitative analysis of fluorescence intensity of filipin at three separate regions of the BrM was done on three different slides from the same eye (a total of 9 different regions from each eye).

Data set [4] has as its system membrane attack complex (MAC, C5b-9). The data set is described as follows: Immunohistochemistry of membrane attack complex, macaque study. Format: in vivo, Macaca fascicularis. The conditions noted are these: eyes injected with L-4F vs eyes injected with the scrambled peptide; 6 monthly intravitreal injections. The procedure:
as §1
(§2) Assays for immunohistochemistry of the membrane attack complex (MAC, C5b-9) and complement factor D (CFD) were performed identically except for employment of monoclonal antibodies specific for each complement component. Specimens were treated with 10 μg/mL protease K (Sigma-Aldrich Biochemie GmbH, Hamburg, Germany) in PBS for antigen retrieval for 30 min at RT. Subsequently the sections were blocked with a solution of goat serum (5% goat serum, 0.3% Triton X-100 in PBS) for 60 min at RT. The specimens were then reacted with a first antibody against either C5b-9 (diluted 1:30 in PBS, mouse monoclonal antibody, Dako Deutschland GmbH, Hamburg, Germany) or complement factor D (diluted 1:200 in PBS, mouse monoclonal antibody, Santa Cruz Biotechnology, Dallas, Tex., USA) overnight at 4° C. […] Fluorescence microscopy was conducted using an inverted fluorescence microscope (DMI 6000 from Leica Microsystems, Wetzlar, Germany) and a filter set for λex/λem=470 nm/525 nm. For the semiquantitative analysis of fluorescence intensity of C5b-9, 3-5 different regions in one slide were analyzed for 3 different slides from each eye (a total of 9-15 different regions from each eye). For the semiquantitative analysis of fluorescence intensity of complement factor D, 3 distinct regions for each eye were evaluated.

Data set [5] concerns complement factor D (CFD). Briefly: Immunohistochemistry of complement factor D, macaque study. Format: in vivo, Macaca fascicularis. The settings on record: eyes injected with L-4F vs eyes injected with the scrambled peptide; 6 monthly intravitreal injections. As for the experimental part:
as §1, §2

The test system of a further data set is Bruch's membrane. The data set is described as follows: Bruch's membrane thickness at the temporal outer macula by electron microscopy, macaque study. In kind it is in vivo, Macaca fascicularis. The procedure: as §1
Lipid deposition in the Bruch's membrane contributes to thickening of the BrM. Bruch's membrane thickness was measured at the temporal outer macula of enucleated eyes examined by electron microscopy post-mortem.

For data set [6], the system named is geriatric macaques with naturally occurring age-related maculopathy. The data set is described as follows: Macaque study of age-related maculopathy: fellow-eye effects and tolerability. Format: in vivo. The settings on record: 6 monthly intravitreal injections, all macaques. The procedure: as §1
Data set [7] concerns high-sensitivity C-reactive protein (hsCRP). The settings on record: cynomolgus monkey, in vivo.
Method: The macaque study was conducted according to accepted guidelines. […] One eye per animal received 6 monthly injections of the same escalating dosages of L-4F or scrambled L-4F (total of 625 μg) in a 50 μL volume. The second eye per animal was not injected and was just observed.
Clinical laboratory tests including serology, hemograms and liver enzymes were conducted, and ophthalmic examinations were also performed, including fundus photographs, optical coherence tomography (OCT), intraocular pressure testing and blood sampling. After 7 months, all animals were sacrificed and eyes were immediately prepared for histology.
Circulating hsCRP, which is mainly produced in the liver, is a non-specific marker for systemic inflammation.
In a further data set the test system is geographic atrophy. The settings on record: monthly intravitreal injections of 10 mg for 18 months, cited from earlier work.

As to “bevacizumab: anti-VEGF antibody or fragment thereof”, the intravitreal half-life entry in data set [1] was “about 9.8 days”.
As to “aflibercept: soluble fusion protein containing one or more extracellular domains of one or more VEGFRs; anti-VEGF agent”, in [1], the intravitreal half-life entry is “about 9.0 days”.
As to “Ac-DWFKAFYDKVAEKFKEAF-NH2 [L-4F, Ac-DWFKAFYDKVAEKFKEAF-NH2 acetate salt (SEQ. ID. NO. 13)]”, the “reduction of lipid deposits from the BrM (oil red O staining)” value in data set [2] is given as “about 56%”. In addition, in data set [3], the “reduction of esterified cholesterol in the BrM (filipin fluorescence, semiquantitative)” value is “about 68%”. Also, in [4], the “decreased level of MAC (C5b-9) in the BrM and the choriocapillaris (fluorescence intensity, semiquantitative)” value is “about 58%”. Also, in data set [5], the “decreased level of complement factor D (fluorescence intensity, semiquantitative)” value was “about 41%”. Besides, the “reduction of BrM thickness” value in the data set on Bruch's membrane (eyes injected with L-4F vs eyes injected with placebo) is “about 24%”. Also, in the data set with Bruch's membrane (injected eyes, electron microscopy post-mortem, mean ± SE), the “BrM thickness at the temporal outer macula” value was 1.31 μm. Also, the “tolerability (significant adverse event or side effect)” value in [6] is reported as “well tolerated”. The “blood level of hsCRP” value in data set [7] is “did not increase”.
Consider “ranibizumab: anti-VEGF antibody or fragment thereof”, for which the intravitreal half-life entry in data set [1] is listed as “about 7.1 days”.
As for “lampalizumab: antigen-binding fragment (Fab) of a humanized monoclonal antibody targeting complement factor D (CFD)”, in the data set on geographic atrophy (fundus autofluorescence, vs placebo), the “reduction in the area of geographic atrophy in the injected eye” value is “about 20%”. In addition, the “reduction in the area of geographic atrophy, subgroup positive for the CFI biomarker” value in the data set on geographic atrophy is “about 44%”.
